The text below walks through data of patent publication US20260297129A1, “PEPTIDES AS SELECTIVE IL-23 RECEPTOR INHIBITORS” (SANOFI, priority 2023, published 2026).

The test system of data set [1] is IL-23 induced STAT3 signaling (IL-23 receptor) in HEK-Blue IL-23 cells. The experiment in a line: Inhibition of IL-23 induced STAT3 signaling in HEK-Blue IL-23 cells, SEAP reporter (Table 9). The format is cell-based. The conditions noted are these: human IL23 0.25 ng/ml, overnight, read-out: Inhibition of IL-23 induced pSTAT3 (IC50 nM). In outline: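 HEK-Blue IL-23 reporter cells (10,000/well) pre-incubated 60 min at 37 °C with serially diluted peptides, then stimulated overnight with human IL-23 at 0.25 ng/ml final. SEAP in supernatant read by QUANTI-Blue, 45 min room temperature, OD 620–655 nm; dose-response curve fitting.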

Data set [2] can be described thus: Protease stability in simulated gastric fluids (FaSSGF) (Table 7). In kind it is in vitro ADME. Conditions: fassgf with pepsin, 60 min, 37° C., read-out: Remaining percentage of peptide compound, FaSSGF 60 (min). An outline of the steps:
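Peptides at 1 μM final were incubated at 37 °C in simulated gastric fluid with pepsin (320 mg per 100 mL SGF concentrate). Samples were quenched with ethanol (0.1% HCOOH) at 0, 60, 120 and 240 min and analysed by LC-MS/MS. Percent remaining is the peak area relative to T0 (100%).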

The nature of data set [3]: Chemical stability (relative purity loss) of peptide compounds in buffer formulations (Table 6). In kind it is physicochemical. The conditions noted are these: 2° C. and 37° C. An outline of the steps: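 Compounds at 0.5 mg/mL in 50 mM HCl pH 1.2, 50 mM phosphate pH 6.5 or pH 7.4, each with acetonitrile (3:1), stored 24 hours at 2° C and 37° C. Purity measured by UHPLC-UV before and after. Stability expressed as relative purity loss.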

Data set [4] is described as follows: Protease stability in simulated intestinal fluids (FaSSIF) (Table 7). The format is in vitro ADME. Conditions: fassif with pancreatin, 37° C.; for remaining at 1 h, 1 µM: 60 min, read-out: Remaining percentage of peptide compound, FaSSIF 60 (min); for remaining at 2 h, 1 µM: 120 min, read-out: Remaining percentage of peptide compound, FaSSIF 120 (min); for remaining at 4 h, 1 µM: 240 min, read-out: Remaining percentage of peptide compound, FaSSIF 240 (min). An outline of the steps: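 1 μM peptide incubated at 37° C in simulated fluid (pancreatin-SIF prepared from pancreatin in SIF concentrate). Samples quenched with acidified ethanol at 0, 60, 120 and 240 min and analysed by LC-MS/MS. Percentage remaining from peak area relative to T0 (100%).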

Where [5] appears, read: 50 mM phosphate buffer pH 6.5 + acetonitrile (3:1), read-out: Chemical stability (relative purity loss), Buffer pH 6.5.
Where [6] appears, read: 50 mM phosphate buffer pH 7.4 + acetonitrile (3:1), read-out: Chemical stability (relative purity loss), Buffer pH 7.4.
The mark [7] stands for this setting: 50 mm hcl + acetonitrile, Buffer pH 1.1 (head; method: 50 mM HCl pH 1.2 + acetonitrile 3:1), read-out: Chemical stability (relative purity loss), Buffer pH 1.1.

The structures appear in SMILES notation. Like-named read-outs stand apart in the source and are kept apart here. Numbered stars: 1 amine (or outer) side, 2 acyl side, 3 side chain; on linkers, the order of the positions; unused ones are H or OH. Bridge positions count the residues as written; N and C are the ends. Square brackets hold non-standard residues; d marks the D form. Peptide text beside a SMILES is read from it. * marks the point of attachment. X2 = O=C(Cc1ccc(-c2ccc(CC(=O)[*:2])cc2)cc1)[*:1]; Trp(7-Me) = Cc1cccc2c(C[C@H](N)C(=O)O)c[nH]c12; 2Nal = N[C@@H](Cc1ccc2ccccc2c1)C(=O)O; X1 = O=C(CCCCCCCCCCCCCN[*:1])[*:2]; 3Pal = N[C@@H](Cc1cccnc1)C(=O)O; Aun = NCCCCCCCCCCC(=O)O; Thp = NC1(C(=O)O)CCOCC1; Me2NCH2CH2 = CN(C)CC*; Aib = CC(C)(N)C(=O)O; Aoc = NCCCCCCCC(=O)O; Sar = CNCC(=O)O

The IC50 is the concentration needed to halve the response being measured. For orientation: amount remaining means the share of the starting amount still present when the sample was taken. `Cc1cccc2c(C[C@@H]3NC(=O)Cc4ccc(cc4)-c4ccc(cc4)CC(=O)NCCCC[C@@H](C(=O)N[C@@H](CC(N)=O)C(=O)N[C@@H](Cc4cccnc4)C(=O)N(C)CC(N)=O)NC(=O)C(C)(C)NC(=O)[C@H](Cc4ccc5ccccc5c4)NC(=O)[C@H](Cc4ccc(OCCN(C)C)cc4)NC(=O)C4(CCOCC4)NC(=O)[C@H](CCC(N)=O)NC3=O)c[nH]c12` [compound 15] ([Trp(7-Me)]Q[Thp]Y(Me2NCH2CH2)[2Nal][Aib]KN[3Pal][Sar]-NH2; linker N-7 via X2): in data set [1], the IC50 is 12 nM. Besides, the amount remaining at 1 h, 1 µM is 87% in data set [2] and 74% in data set [4]. The degraded at 24 h in data set [3] (setting [5]) was 0%; in data set [3] (setting [6]), 0.4%; in data set [3] (setting [7]), 7.1%. Further, in data set [4], the fraction remaining at 2 h, 1 µM is 63%. The amount remaining at 4 h, 1 µM in data set [4] was 43%.
Take `Cc1cccc2c(C[C@@H]3NC(=O)CCCCCCCCCCNC(=O)CC[C@@H](C(=O)N[C@@H](CC(N)=O)C(=O)N[C@@H](Cc4cccnc4)C(=O)N(C)CC(N)=O)NC(=O)C(C)(C)NC(=O)[C@H](Cc4ccc5ccccc5c4)NC(=O)[C@H](Cc4ccc(OCCN(C)C)cc4)NC(=O)C4(CCOCC4)NC(=O)[C@H](CC(C)C)NC3=O)c[nH]c12` [compound 7] ([Aun][Trp(7-Me)]L[Thp]Y(Me2NCH2CH2)[2Nal][Aib]EN[3Pal][Sar]-NH2; lactam N-8): the IC50 in data set [1] worked out at 1.73 nM. For the same compound, the share remaining at 1 h, 1 µM in data set [2] is 6%; in data set [4], 80%. Moreover, the degraded at 24 h came out at 0% in data set [3] (setting [5]), 0.5% in data set [3] (setting [6]) and 3.9% in data set [3] (setting [7]). Moreover, the amount remaining at 2 h, 1 µM in data set [4] is 81%. For the same compound, in data set [4], the fraction remaining at 4 h, 1 µM is 82%.
`Cc1cccc2c(C[C@@H]3NC(=O)CCCCCCCNC(=O)CC[C@@H](C(=O)N[C@@H](CC(N)=O)C(=O)N[C@@H](Cc4cccnc4)C(=O)N(C)CC(N)=O)NC(=O)C(C)(C)NC(=O)[C@H](Cc4ccc5ccccc5c4)NC(=O)[C@H](Cc4ccc(OCCN(C)C)cc4)NC(=O)C4(CCOCC4)NC(=O)[C@H](CC(C)C)NC3=O)c[nH]c12` [compound 9] ([Aoc][Trp(7-Me)]L[Thp]Y(Me2NCH2CH2)[2Nal][Aib]EN[3Pal][Sar]-NH2; lactam N-8): the IC50 in data set [1] was found to be 10.8 nM. For the same compound, the amount remaining at 1 h, 1 µM in data set [2] is 59%; in data set [4], 74%. Further, the degraded at 24 h in data set [3] (setting [5]) turned out to be 0%; in data set [3] (setting [6]), 0%; in data set [3] (setting [7]), 5.6%. The fraction remaining at 2 h, 1 µM in data set [4] is 76%. For the same compound, the share remaining at 4 h, 1 µM in data set [4] was 74%.
Regarding `CC(=O)NCCCC[C@@H]1NC(=O)[C@H](Cc2c[nH]c3c(C)cccc23)NC(=O)[C@@H](NC(C)=O)CCCCN(C)CCCCN(C)CCCC[C@@H](C(=O)N[C@@H](CC(N)=O)C(=O)N[C@@H](Cc2cccnc2)C(=O)N(C)CC(N)=O)NC(=O)C(C)(C)NC(=O)[C@@H](Cc2ccc3ccccc3c2)NC(=O)[C@H](Cc2ccc(OCCN(C)C)cc2)NC(=O)C2(CCOCC2)NC1=O` [compound 13], in data set [1], the 50% inhibitory concentration (IC50) worked out at 0.17 nM. Moreover, the amount remaining at 1 h, 1 µM in data set [2] and in data set [4] was 90% in each case. Further, the figures for the degraded at 24 h in data set [3] (setting [5]), in data set [3] (setting [6]) and in data set [3] (setting [7]) were 0%, 0% and 3.1%, respectively. Besides, the fraction remaining at 2 h, 1 µM in data set [4] was 89%. In addition, the amount remaining at 4 h, 1 µM in data set [4] was 88%.
As to `Cc1cccc2c(C[C@@H]3NC(=O)CCCCCCCCCCCCCNC(=O)CC[C@@H](C(=O)N[C@@H](CC(N)=O)C(=O)N[C@@H](Cc4cccnc4)C(=O)N(C)CC(N)=O)NC(=O)C(C)(C)NC(=O)[C@H](Cc4ccc5ccccc5c4)NC(=O)[C@H](Cc4ccc(OCCN(C)C)cc4)NC(=O)C4(CCOCC4)NC(=O)[C@H](CCC(N)=O)NC3=O)c[nH]c12` [compound 1] ([X1][Trp(7-Me)]Q[Thp]Y(Me2NCH2CH2)[2Nal][Aib]EN[3Pal][Sar]-NH2; lactam N-8), in data set [1], the IC50 was 1.14 nM. The figures for the fraction remaining at 1 h, 1 µM in data set [2] and in data set [4] were 77% and 96%, respectively. For the same compound, the degraded at 24 h in data set [3] (setting [5]) was determined as 0%; in data set [3] (setting [6]), 0%; in data set [3] (setting [7]), 6.2%. Moreover, the amount remaining at 2 h, 1 µM in data set [4] is 90%. Further, the fraction remaining at 4 h, 1 µM in data set [4] was 90%.
